Structures can show the parent of a compound that is named as a salt.
Legend:
[1] = tested on: Indomethacin induced ulcer; test: Anti-ulcer activity, indomethacin induced ulcer, rats; format: in vivo; conditions: p.o.
[2] = tested on: Pylorus Ligature induced ulcer; test: Anti-ulcer activity, pylorus ligature ulcer, rats; format: in vivo; conditions: s.c., 20 mg/kg
[3] = tested on: Stress induced ulcer; test: Anti-ulcer activity, stress induced ulcer, mice; format: in vivo; conditions: p.o., 5 mg/kg
[4] = tested on: Corediastasis; test: Corediastasis (side effect), intraperitoneal; format: in vivo
[5] = tested on: mice; test: Acute toxicity, overall comparison; format: in vivo; conditions: in words, vs Glycopyrrolate
[6] = tested on: Aspirin induced ulcer; test: Anti-ulcer activity, aspirin induced ulcer, rats; format: in vivo; conditions: s.c., 5 mg/kg
[7] = tested on: ulcer; test: Anti-ulcer activity, overall statement; format: in vivo; conditions: in words, vs Glycopyrrolate
[8] = tested on: mice; test: Acute toxicity LD50, oral, in mice; conditions: oral
[9] = tested on: Aspirin-Stress induced ulcer; test: Anti-ulcer activity, aspirin-stress induced ulcer, mice; format: in vivo; conditions: s.c., 5 mg/kg
[10] = tested on: mice; test: Acute toxicity LD50, intravenous, in mice; conditions: intravenous
[11] = tested on: Gastric secretion; test: Gastric secretion inhibitory activity, observed in the anti-ulcer test using aspirin; format: in vivo; conditions: observed simultaneously in anti-ulcer test using aspirin (rats, s.c., 5 mg/kg)
[12] = tested on: Desalivation; test: Desalivation activity (side effect), relative to racemate; format: in vivo; conditions: for Desalivation Activity: relative, racemic mixture = 1, side effect
[13] = Acute toxicity LD50, oral, in mice; conditions: mouse, in vivo, po
[14] = Acute toxicity LD50, intravenous, in mice; conditions: mouse, in vivo, iv
[15] = tested on: Stress ulcer; test: Anti-ulcer activity (Stress), relative to racemate; format: in vivo; conditions: for Anti-ulcer Activity (Stress): relative, racemic mixture = 1
[16] = tested on: Anticholinergic activity; test: Anticholinergic activity (relative to racemate); format: in vivo

Row | Structure (SMILES) | Anti-ulcer Activity, % Inhibitory [2] [%] | Anti-ulcer Activity, % Inhibitory [3] [%] | corediastasis ED20 ([4]; in vivo, ip) [mg/kg] | Anti-ulcer Activity, % Inhibitory [6] [%] | Anti-ulcer Activity, % Inhibitory [9] [%] | Gastric secretion inhibitory activity, % Inhibitory [11] [%] | Desalivation Activity [12] | LD50 [13] [mg/kg] | LD50 [14] [mg/kg] | Anti-ulcer Activity (Stress) [15] | further results
1 | CN1CCN(C[C@H]2C(=O)Nc3ccccc3S[C@H]2c2ccccc2)CC1 (relative stereo) [Compound A] | 100.0 | 91.6 | 0.31 | 100.0 | 51.8 | 90 | – | – | – | – | Anti-ulcer Activity, % Inhibitory ([1]; A: 5 mg/kg): 99.0%; degree of acute toxicity compared with Glycopyrrolate [5]: approximately the same degree of acute toxicity as Glycopyrrolate; anti-ulcer activity compared with Glycopyrrolate [7]: equal or higher anti-ulcer activity; LD50 (in mice), Oral ([8]; mice, test compounds A-C): 650 mg/kg; LD50 (in mice), Intravenous ([10]; mice, test compounds A-C): 65 mg/kg
2 | CN1[C@@H]2CC[C@H]1CC(OC(=O)C(CO)c1ccccc1)C2 (some centres unmarked) [Compound C, Atropin Sulfate] | 13.0 | 82.3 | – | 79.3 | 48.0 | 70 | – | – | – | – | corediastasis ED20 ([4]; intraperitoneal administration): 0.076 mg/kg
3 | CN1CCN(C[C@H]2C(=O)Nc3ccccc3S[C@H]2c2ccccc2)CC1 (relative stereo) [Racemic Mixture, (±)-cis-2,3-dihydro-3-[(4-methylpiperazinyl)methyl]-2-phenyl-1,5-benzothiazepin-4(5H)-one] | – | – | – | – | – | – | 1 | 650 | 65 | 1 | –
4 | C[N+]1(C)CCC(OC(=O)C(O)(c2ccccc2)C2CCCC2)C1 (centres unmarked) [Compound B, Glycopyrrolate] | 100.0 | 81.9 | 0.037 | 100.0 | 47.6 | 90 | – | – | – | – | Anti-ulcer Activity, % Inhibitory ([1]; B: 20 mg/kg): 88.6%
5 | CN1CCN(C[C@H]2C(=O)Nc3ccccc3S[C@H]2c2ccccc2)CC1 (single isomer, unassigned) [(-) Form, cis-(-)-2,3-dihydro-3-[(4-methylpiperazinyl)methyl]-2-phenyl-1,5-benzothiazepin-4(5H)-one] | – | – | – | – | – | – | 0.6 | 870 | 160 | 4 | desalivation activity as a side-effect, degree relative to racemate ([12]; (-) form vs racemate): about 1/2; anticholinergic activity relative to the corresponding racemate ([16]; (-) form vs racemate): 2 times; Anticholinergic Activity ([16]; relative, racemic mixture = 1): 2; acute toxicity by oral administration, degree relative to racemate ([8]; (-) form vs racemate): 3/4; acute toxicity by intravenous administration, degree relative to racemate ([10]; (-) form vs racemate): 2/5; anti-ulcer activity relative to the corresponding racemate ([15]; (-) form vs racemate): 4 times

From US4264497A, “1,5-Benzothiazepine compounds” (Maruko Seiyaku Co., Ltd., priority 1978, dated 1981)
